The record followed here is ChEMBL document CHEMBL5233261, “Recent accomplishments on the synthetic/biological facets of pharmacologically active 1H-1,2,3-triazoles” (Eur J Med Chem, 2021).

Experiment [1] concerns Mycobacterium tuberculosis. Briefly: Antibacterial activity against Mycobacterium tuberculosis H37Rv strain assessed as bacterial growth inhibition by MABA Assay. The class given is functional, organism-based. (In general: The colour change of resazurin is a common sign of viable cells or microbes.)
Experiment [2] relates to Mycobacterium tuberculosis. Put plainly: Antibacterial activity against Mycobacterium tuberculosis H37Rv ATCC 27294 strain assessed as bacterial growth inhibition by MABA Assay. The class given is functional.
The test system of experiment [3] is Bacillus subtilis. Put plainly: Antibacterial activity against Bacillus subtilis assessed as bacterial growth inhibition incubated for 24 hrs by agar well diffusion assay. The class given is functional. (A growth-free zone around the sample is the usual read-out of agar diffusion tests.)
The subject of experiment [4] is Escherichia coli. Briefly: Antibacterial activity against Escherichia coli assessed as bacterial growth inhibition incubated for 24 hrs by agar well diffusion assay. The class given is functional.
Experiment [5] deals with Staphylococcus aureus. Put plainly: Antibacterial activity against Staphylococcus aureus assessed as bacterial growth inhibition incubated for 24 hrs by agar well diffusion assay. The class given is functional.
For experiment [6], the system named is Mycobacterium tuberculosis. Briefly: Antibacterial activity against Mycobacterium tuberculosis H37Rv strain assessed as bacterial growth inhibition incubated for 7 days by Resazurin Microtiter Assay. The class given is functional. To be noted: 168 h, time 7 day.
For experiment [7], the system named is Mycobacterium tuberculosis. Put plainly: Antibacterial activity against Mycobacterium tuberculosis H37Ra ATCC 25177 assessed as bacterial growth inhibition by XTT Reduction Menadione Assay. The class given is functional.
A further experiment relates to HEK293. Put plainly: Anticancer activity against human HEK293 cells assessed as cell growth inhibition by MTT assay. The class given is functional. (Tetrazolium assays rely on reduction of a dye to a coloured formazan, in cell work by metabolically active cells.)
For experiment [8], the system named is MCF7. Briefly: Anticancer activity against human MCF7 cells assessed as cell growth inhibition by MTT assay. The class given is functional, cell-based.
In experiment [9] the test system is MDA-MB-231. Briefly: Anticancer activity against human MDA-MB-231 cells assessed as cell growth inhibition by MTT assay. The class given is functional, cell-based.
Experiment [10] concerns Pseudomonas aeruginosa. Put plainly: Antibacterial activity against Pseudomonas aeruginosa assessed as bacterial growth inhibition. The class given is functional.
Experiment [11] relates to Escherichia coli. Put plainly: Antibacterial activity against Escherichia coli assessed as bacterial growth inhibition. The class given is functional.
The subject of experiment [12] is MCF7. Briefly: Anticancer activity against human MCF7 cells assessed as cell growth inhibition incubated for 72 hrs by MTT assay. The class given is functional, cell-based. To be noted: MCF7, 72 h.
In the next experiment the test system is HeLa. Put plainly: Anticancer activity against human HeLa cells assessed as cell growth inhibition incubated for 72 hrs by MTT assay. The class given is functional, cell-based.
Experiment [13] concerns Bacillus subtilis. Briefly: Antibacterial activity against Bacillus subtilis assessed as bacterial growth inhibition. The class given is functional.
The test system of another experiment is Candida albicans. Briefly: Antifungal activity against Candida albicans assessed as […] growth inhibition. The class given is functional.
For experiment [14], the system named is Staphylococcus epidermidis. Briefly: Antibacterial activity against Staphylococcus epidermidis assessed as bacterial growth inhibition. The class given is functional.
The test system of the next experiment is Aspergillus niger. Briefly: Antifungal activity against Aspergillus niger assessed as […] growth inhibition. The class given is functional.
Experiment [15] deals with Pseudomonas aeruginosa. Briefly: Antibacterial activity against Pseudomonas aeruginosa assessed as bacterial growth inhibition incubated for 12 hrs by well plate assay. The class given is functional.
The test system of experiment [16] is Staphylococcus epidermidis. Briefly: Antibacterial activity against Staphylococcus epidermidis assessed as bacterial growth inhibition incubated for 12 hrs by well plate assay. The class given is functional.
In experiment [17] the test system is Staphylococcus aureus. Briefly: Antibacterial activity against Staphylococcus aureus assessed as bacterial growth inhibition incubated for 12 hrs by well plate assay. The class given is functional.
A further experiment relates to Klebsiella pneumoniae. Briefly: Antibacterial activity against Klebsiella pneumoniae assessed as bacterial growth inhibition incubated for 12 hrs by well plate assay. The class given is functional.
Experiment [18] deals with Enoyl-[acyl-carrier-protein] reductase [NADH] (Mycobacterium tuberculosis) (UniProt P9WGR1). Put plainly: Inhibition of Mycobacterium tuberculosis InhA at 50 microM relative to control.
Enoyl-[acyl-carrier-protein] reductase [NADH] (Mycobacterium tuberculosis), sequence (P9WGR1 whole entry): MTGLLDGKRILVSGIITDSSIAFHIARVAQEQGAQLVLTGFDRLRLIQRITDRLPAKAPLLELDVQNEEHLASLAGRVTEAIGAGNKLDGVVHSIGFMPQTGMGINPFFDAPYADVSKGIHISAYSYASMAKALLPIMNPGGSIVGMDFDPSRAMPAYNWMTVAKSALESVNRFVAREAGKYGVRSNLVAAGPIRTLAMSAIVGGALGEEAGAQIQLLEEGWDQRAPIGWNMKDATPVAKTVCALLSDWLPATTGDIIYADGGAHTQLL
The test system of experiment [19] is MCF7. Put plainly: Potency index, ratio of Tamoxifen IC50 to test compound IC50 for cytotoxicity against human MCF7 cells by MTT assay. The class given is functional.
Experiment [20] has as its system MDA-MB-231. Put plainly: Potency index, ratio of Tamoxifen IC50 to test compound IC50 for cytotoxicity against human MDA-MB-231 cells by MTT assay. The class given is functional.
The next experiment has as its system A549. Briefly: Anticancer activity against human A549 cells assessed as cell growth inhibition incubated for 48 hrs by SRB assay. The class given is functional, cell-based. To be noted: A549, 48 h.
The test system of experiment [21] is MCF7. Put plainly: Anticancer activity against human MCF7 cells assessed as cell growth inhibition incubated for 48 hrs by SRB assay. The class given is functional, cell-based. Particulars: MCF7, 48 h.
Another experiment concerns HCT-116. Put plainly: Anticancer activity against human HCT-116 cells assessed as cell growth inhibition incubated for 48 hrs by SRB assay. The class given is functional, cell-based. Particulars: HCT-116, 48 h.
Another experiment relates to HT-29. Briefly: Anticancer activity against human HT-29 cells assessed as cell growth inhibition incubated for 48 hrs by SRB assay. The class given is functional, cell-based. Particulars: HT-29, 48 h.
For the next experiment, the system named is DU-145. Briefly: Anticancer activity against human DU-145 cells assessed as cell growth inhibition by MTT assay. The class given is functional, cell-based.
Setting [22] is: Pseudomonas aeruginosa, read-out: MIC.

In brackets after ≈: the same amount, converted by molar mass. Several values for one entry are separate records, joined by “and”; a condition that tells them apart may be missing. Identical values can stand only once.

Usually IC50 stands for the concentration needed to halve the response being measured. On to `O=c1c(Cn2cc(CCCCCCCCCCCCCCCO)nn2)coc2ccccc12`, for which, in experiment [1], the IC50 stood at 1.56 mg/L (≈ 3.44 µM).
On to `COc1ccc(Cn2cc(CNC(=O)c3cc4cc(OC)ccc4nc3Cl)nn2)cc1`, for which the MIC in [2] came to 1.6 mg/L (≈ 3.65 µM).
In the case of `Cc1cc(=O)oc2cc(OCc3cn(CCCCCCn4cc(COc5cc6oc(=O)cc(C)c6cc5Cl)nn4)nn3)c(Cl)cc12`, the “inhibition zone (IZ)” value in the experiment on Bacillus subtilis [3] is listed as 19 mm; in the experiment on Escherichia coli [4] it was 14 mm; in the experiment on Staphylococcus aureus [5] it was 16 mm. Besides, in experiment [6], the MIC amounted to 1.56 mg/L (≈ 2.34 µM).
In the case of `CC(=O)Nc1ccc(N2C=C(C(c3c[nH]c4ccc(Br)cc34)c3c[nH]c4ccc(Br)cc34)NN2)cc1`, the MIC in experiment [7] was 3 mg/L and 1 mg/L.
As for `O=C1C(=O)N(Cc2cn(CC/C(=C(\c3ccccc3)c3ccc(OCCO)cc3)c3ccccc3)nn2)c2c(Br)cc(Br)cc21`, the IC50 is >100 µM in the experiment on HEK293, 31.6 µM with MCF7 [8] and 19.2 µM in the experiment on MDA-MB-231 [9].
For `COc1ccc2nc(Cl)c(C(=O)NCc3cn(C(=O)c4ccc(F)cc4)nn3)cc2c1`, the MIC with Pseudomonas aeruginosa [10] (setting [22]) was found to be 6.25 mg/L; in the experiment on Escherichia coli [11] (Escherichia coli, read-out: MIC), 6.25 mg/L (≈ 14.2 µM).
For `COc1ccc(C(=O)Cn2cc(CNC(=O)c3cc4cc(OC)ccc4nc3Cl)nn2)cc1`, the MIC in experiment [2] is 1.6 mg/L (≈ 3.43 µM).
Regarding `Cc1ccc(-n2cc(CSc3nnc(C(C)c4ccc(CC(C)C)cc4)o3)nn2)c(C)c1` (stereo unspecified), the concentration for half-maximal inhibition (IC50) in the experiment with MCF7 [12] was found to be 31 mg/L (≈ 69.3 µM); in the experiment with HeLa, 27.5 mg/L (≈ 61.4 µM).
Turning to `O=C(Cn1cc(-c2cccc(F)c2)nn1)Nc1ccc(F)cc1`, the MIC (in the experiment with Bacillus subtilis [13]; with Candida albicans; in [14]; with Aspergillus niger; with Pseudomonas aeruginosa [10]; in the experiment on Escherichia coli [11]) was 0.0199 umol/cm3 throughout.
On to `COc1ccc2nc(Cl)c(C(=O)NCc3cn(Cc4ccc(C#N)cc4)nn3)cc2c1`, for which, in experiment [2], the MIC was found to be 1.6 mg/L (≈ 3.7 µM).
On to `Cc1cc(=O)oc2cc(OCc3cn(CCCCCCCCn4cc(COc5cc6oc(=O)cc(C)c6cc5Cl)nn4)nn3)c(Cl)cc12`, for which the “inhibition zone (IZ)” value in the experiment on Bacillus subtilis [3] is on record as 19 mm; in the experiment with Escherichia coli [4], 14 mm; with Staphylococcus aureus [5] it was 16 mm. In addition, the MIC in experiment [6] was determined as 1.56 mg/L (≈ 2.25 µM).
As to `COc1cc([C@H]2c3cc4c(cc3[C@H](OCc3cn([C@@H]5O[C@H](COC(C)=O)[C@H](OC(C)=O)[C@H](OC(C)=O)[C@H]5OC(C)=O)nn3)[C@@H]3COC(=O)[C@@H]23)OCO4)cc(OC)c1OC`, the IC50 in the experiment on MCF7 [8] amounted to 1.25 µM.
As to `COc1ccc2nc(Cl)c(C(=O)NCc3cn(Cc4ccccc4)nn3)cc2c1`, the MIC in experiment [2] was determined as 1.6 mg/L (≈ 3.92 µM).
With `COc1ccccc1/N=C/c1c(OCc2cn(CCC[Si]34OCCN(CCO3)CCO4)nn2)ccc2ccccc12`, the MIC stood at 106 mg/L (≈ 185 µM) in the experiment on Pseudomonas aeruginosa [15], 26.5 mg/L (≈ 46.2 µM) in [16], 26.5 mg/L (≈ 46.2 µM) in the experiment on Staphylococcus aureus [17] and 106 mg/L (≈ 185 µM) in the experiment with Klebsiella pneumoniae.
As usually defined, the inhibition is the relative decrease from the control value, in per cent. Low values mean a weak effect, high ones a strong effect. In experiment [18], `COc1cc(-n2cc(CS(=O)(=O)C3c4ccccc4-c4ccccc43)nn2)cc(OC)c1OC` gave an inhibition of 73%.
As for `Cc1ncc([N+](=O)[O-])n1Cc1cn(CCCCCN2C(=O)C(=O)c3cc(Cl)ccc32)nn1`, the “Ratio IC50” value in the experiment with MCF7 [19] was found to be 2; with MDA-MB-231 [20], 5.
`Cc1ccc(-c2nn(-c3ccccc3)cc2/C=C/C(=O)OCc2cn(-c3ccc([N+](=O)[O-])cc3)nn2)cc1`: the IC50 is 1.96 µM with A549, 1.76 µM with MCF7 [21], 3.59 µM with HCT-116 and 4.49 µM in the experiment with HT-29.
On to `NC(=O)N/N=C/c1ccc(OCc2cn(-c3ccc(F)cc3)nn2)cc1`, for which the MIC with Pseudomonas aeruginosa [10] (setting [22]) stood at 35.3 µM.
For `COc1cc([C@H]2c3cc4c(cc3[C@H](OCc3cn([C@@H]5O[C@H](COC(C)=O)[C@@H](OC(C)=O)[C@H](OC(C)=O)[C@H]5OC(C)=O)nn3)[C@@H]3COC(=O)[C@@H]23)OCO4)cc(OC)c1OC`, the half-maximal inhibitory concentration (IC50) in the experiment with DU-145 turned out to be 1.02 µM.
